Measurements from paper PMC9132415, “Identification of 1H-pyrazolo[3,4-b]pyridine derivatives as novel and potent TBK1 inhibitors: design, synthesis, biological evaluation, and molecular docking study” (Journal of Enzyme Inhibition and Medicinal Chemistry, 2022).
Read-outs that look alike come from different tables or passages of the source.

Target: T1, TBK1 (Homo sapiens, UniProt Q9UHD2)
T1 sequence (Q9UHD2 1-729): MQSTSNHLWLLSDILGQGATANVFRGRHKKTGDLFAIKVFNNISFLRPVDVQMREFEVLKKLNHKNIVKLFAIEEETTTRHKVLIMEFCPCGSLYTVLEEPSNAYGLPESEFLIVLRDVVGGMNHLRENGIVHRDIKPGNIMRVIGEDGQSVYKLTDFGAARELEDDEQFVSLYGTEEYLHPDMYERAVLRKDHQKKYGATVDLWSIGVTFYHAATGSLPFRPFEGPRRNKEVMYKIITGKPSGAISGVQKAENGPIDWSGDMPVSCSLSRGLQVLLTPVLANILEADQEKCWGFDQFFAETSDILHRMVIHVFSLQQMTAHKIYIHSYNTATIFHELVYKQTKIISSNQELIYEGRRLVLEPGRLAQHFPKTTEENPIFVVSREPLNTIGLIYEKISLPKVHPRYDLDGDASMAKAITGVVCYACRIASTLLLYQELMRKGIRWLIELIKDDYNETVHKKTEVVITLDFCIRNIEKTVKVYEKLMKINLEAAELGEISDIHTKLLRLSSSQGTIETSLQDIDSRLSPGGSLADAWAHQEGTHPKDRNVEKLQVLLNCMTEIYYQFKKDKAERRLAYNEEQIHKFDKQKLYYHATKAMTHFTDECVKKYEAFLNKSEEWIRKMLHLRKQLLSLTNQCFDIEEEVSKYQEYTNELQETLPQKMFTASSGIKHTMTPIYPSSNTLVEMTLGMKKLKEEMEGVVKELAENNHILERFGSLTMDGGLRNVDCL
Assay: FRET-based Z'-LYTE TBK1 enzymatic assay
Format: biochemical
Design: purchased Thermo Scientific A31513
Conditions: for inhibition at 0.001 µM: compound at 1 nM, read-out: TBK1 inhibition (%) 1 nM; for IC50: mean of two separate experiments

[1] = compound at 10 nM, 100 µM ATP, read-out: TBK1 inhibition (%) 10 nM
[2] = compound at 100 nM, 100 µM ATP, read-out: TBK1 inhibition (%) 100 nM
[3] = compound at 1 μM, 100 µM ATP, read-out: TBK1 inhibition (%) 1 μM
[4] = read-out: TBK1 inhibition (%) 10 nM, compound at 10 nM, 100 µM ATP
[5] = read-out: TBK1 inhibition (%) 100 nM, compound at 100 nM, 100 µM ATP
[6] = read-out: TBK1 inhibition (%) 1 μM, compound at 1 μM, 100 µM ATP
[7] = read-out: TBK1 inhibition (%) 10 μM, compound at 10 μM, 100 µM ATP
[8] = compound at 10 μM, 100 µM ATP, read-out: TBK1 inhibition (%) 10 μM

inhibition at 0.01 µM [1] [%]	inhibition at 0.1 µM [2] [%]	inhibition at 1 µM [3] [%]	IC50 (100 µM ATP) [µM]	SMILES	inhibition at 0.1 µM [5] [%]	inhibition at 1 µM [6] [%]	inhibition at 10 µM [7] [%]	further results
68.6	76.9	97.2	0.0062	Cc1nc2ccc(-c3n[nH]c4ncc(-c5ccc(S(N)(=O)=O)cc5)cc34)cc2n1C(C)C [Compound 15s]				inhibition at 0.001 µM (100 µM ATP): 45.5%
				Cc1nc2cc(-c3n[nH]c4ncc(-c5ccc(S(N)(=O)=O)cc5)cc34)cc(F)c2o1 [Compound 15r]	10.8	5.7	56.8	inhibition at 0.01 µM [4]: -2.6%
				CN1CCN(Cc2ccc(-c3cnc4[nH]nc(NCCCn5ccnc5)c4c3)cc2)CC1 [Compound 12i]	15.2	19.9	7.1	inhibition at 0.01 µM [4]: 16.2%
				NS(=O)(=O)c1ccc(-c2cnc3[nH]nc(-c4cc(F)c5cn[nH]c5c4)c3c2)cc1 [Compound 15q]	12.7	25.5	83.9	inhibition at 0.01 µM [4]: 4.5%
				CN1CCN(Cc2ccc(-c3cnc4[nH]cc(-c5ccc6[nH]ccc6c5)c4c3)cc2)CC1 [URMC-099, reference compound]			75.4	TBK1 inhibition (%) 10 μM (compound at 10 μM, 100 µM ATP): 75.3%
	28.7	81.4	0.29	CN1CCN(Cc2ccc(-c3cnc4[nH]nc(-c5cccc6cnccc56)c4c3)cc2)CC1 [Compound 15f]				inhibition at 10 µM [8]: 101%
14.3	62.8	104	0.0753	CC(C)n1cnc2ccc(-c3n[nH]c4ncc(-c5ccc(CN6CCN(C)CC6)cc5)cc34)cc21 [Compound 15e]				inhibition at 10 µM [8]: 108%
18	52.5	84.1	0.131	CN1CCN(Cc2ccc(-c3cnc4[nH]nc(-c5ccc6[nH]cnc6c5)c4c3)cc2)CC1 [Compound 15d]				inhibition at 10 µM [8]: 102%
				CC(C)n1c(C(F)(F)F)nc2c(F)cc(-c3n[nH]c4ncc(-c5ccc(S(N)(=O)=O)cc5)cc34)cc21 [Compound 15w]	27.1			TBK1 inhibitory activity (in words): almost lost TBK1 activity; inhibition at 0.01 µM [4]: 10.7%
				CC(C)n1c(C(F)(F)F)nc2c(F)cc(-c3n[nH]c4ncc(-c5cccc(S(N)(=O)=O)c5)cc34)cc21 [Compound 15aa]	36.8	48.3		inhibition at 0.01 µM [4]: 14.1%
				NS(=O)(=O)c1ccc(-c2cnc3[nH]nc(-c4cnn(CCN5CCOCC5)c4)c3c2)cc1 [Compound 15n]	-8.9	-15	-12.5	
31.5	67.1	104	0.0672	CC(=O)Nc1cc(-c2cnc3[nH]nc(-c4ccc5ncn(C(C)C)c5c4)c3c2)ccn1 [Compound 15j]				inhibition at 0.001 µM (100 µM ATP): 14.2%; inhibition at 10 µM [8]: 103%
48.4	84.4	79.5	0.0244	Cc1nc2c(F)cc(-c3n[nH]c4ncc(-c5cccc(S(N)(=O)=O)c5)cc34)cc2n1C1CC1 [Compound 15z]				inhibition at 0.001 µM (100 µM ATP): 32.7%
				CN1CCN(Cc2ccc(-c3cnc4[nH]nc(NCc5ccc(Cl)cc5Cl)c4c3)cc2)CC1 [Compound 12c]	-30.1	-6.7	-2	
49.7	70.3	87.4	0.0312	Cc1nc2c(F)cc(-c3n[nH]c4ncc(-c5ccc(S(N)(=O)=O)cc5)cc34)cc2n1C1CC1 [Compound 15v]				inhibition at 0.0001 µM (compound at 0.1 nM, 100 µM ATP, read-out: TBK1 inhibition (%) 0.1 nM): 37.7%; inhibition at 0.001 µM (100 µM ATP): 42.5%
				COc1ccc(CCNc2n[nH]c3ncc(-c4ccc(CN5CCN(C)CC5)cc4)cc23)cc1 [Compound 12f]	-9.7	-7.9	-0.5	
				CN1CCN(Cc2ccc(-c3cnc4[nH]nc(-c5cccc(N)c5)c4c3)cc2)CC1 [Compound 15b]	11	14.3	47.9	
